Laboratory results published in ChEMBL document CHEMBL6078616, “Seven-membered N-heterocycles as approved drugs and promising leads in medicinal chemistry as well as the metal-free domino access to their scaffolds” (Eur J Med Chem, 2024).
pIC50: −log10 of the molar value.

Experiments:
Histone deacetylase 11 = target: T1, Histone deacetylase 11 (Homo sapiens, UniProt Q96DB2); experiment: Inhibition of HDAC11 (unknown origin)
T1 sequence (Q96DB2 whole entry): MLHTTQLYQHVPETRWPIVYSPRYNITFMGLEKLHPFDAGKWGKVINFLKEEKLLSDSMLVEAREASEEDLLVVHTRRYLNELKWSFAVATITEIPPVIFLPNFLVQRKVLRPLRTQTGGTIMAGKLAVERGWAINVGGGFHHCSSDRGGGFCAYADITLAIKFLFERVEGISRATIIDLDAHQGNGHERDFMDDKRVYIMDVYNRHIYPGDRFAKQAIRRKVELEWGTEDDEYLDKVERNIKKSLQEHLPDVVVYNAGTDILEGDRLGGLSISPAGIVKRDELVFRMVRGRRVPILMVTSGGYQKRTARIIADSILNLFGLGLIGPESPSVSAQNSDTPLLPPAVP

Histone deacetylase 4 = Histone deacetylase 4 (Homo sapiens, UniProt P56524); experiment: Inhibition of HDAC4 (unknown origin)
Sequence of Histone deacetylase 4 (P56524 whole entry): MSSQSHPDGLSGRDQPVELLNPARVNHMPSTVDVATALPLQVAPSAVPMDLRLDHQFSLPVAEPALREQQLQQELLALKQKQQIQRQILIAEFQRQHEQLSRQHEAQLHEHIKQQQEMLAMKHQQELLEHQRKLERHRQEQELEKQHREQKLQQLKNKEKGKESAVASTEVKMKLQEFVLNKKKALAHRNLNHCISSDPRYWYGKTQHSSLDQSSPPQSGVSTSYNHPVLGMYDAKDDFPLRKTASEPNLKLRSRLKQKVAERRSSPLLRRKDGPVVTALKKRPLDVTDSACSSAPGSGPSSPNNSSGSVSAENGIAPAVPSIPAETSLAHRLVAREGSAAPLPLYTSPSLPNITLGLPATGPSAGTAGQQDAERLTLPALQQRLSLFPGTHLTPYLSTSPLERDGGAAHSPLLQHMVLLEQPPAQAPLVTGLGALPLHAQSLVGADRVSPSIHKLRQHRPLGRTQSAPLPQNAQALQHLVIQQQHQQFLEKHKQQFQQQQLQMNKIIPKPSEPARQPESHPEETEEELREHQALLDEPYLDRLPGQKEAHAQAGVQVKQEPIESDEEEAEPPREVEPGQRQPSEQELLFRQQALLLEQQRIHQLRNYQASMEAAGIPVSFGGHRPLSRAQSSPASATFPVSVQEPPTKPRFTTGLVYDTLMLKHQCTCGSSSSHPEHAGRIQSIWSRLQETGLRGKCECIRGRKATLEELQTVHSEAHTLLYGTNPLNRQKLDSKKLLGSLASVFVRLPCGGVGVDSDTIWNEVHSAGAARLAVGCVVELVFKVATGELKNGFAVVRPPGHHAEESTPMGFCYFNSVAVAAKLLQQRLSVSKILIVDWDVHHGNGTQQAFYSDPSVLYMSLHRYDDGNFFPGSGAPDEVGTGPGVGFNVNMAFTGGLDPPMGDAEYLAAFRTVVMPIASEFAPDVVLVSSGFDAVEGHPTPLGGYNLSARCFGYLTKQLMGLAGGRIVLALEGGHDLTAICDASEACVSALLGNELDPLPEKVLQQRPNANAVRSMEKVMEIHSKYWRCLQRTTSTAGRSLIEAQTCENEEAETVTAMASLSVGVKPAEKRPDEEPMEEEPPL

Histone deacetylase 2 = Histone deacetylase 2 (Homo sapiens, UniProt Q92769); experiment: Inhibition of HDAC2 (unknown origin)
Sequence of Histone deacetylase 2 (Q92769 whole entry): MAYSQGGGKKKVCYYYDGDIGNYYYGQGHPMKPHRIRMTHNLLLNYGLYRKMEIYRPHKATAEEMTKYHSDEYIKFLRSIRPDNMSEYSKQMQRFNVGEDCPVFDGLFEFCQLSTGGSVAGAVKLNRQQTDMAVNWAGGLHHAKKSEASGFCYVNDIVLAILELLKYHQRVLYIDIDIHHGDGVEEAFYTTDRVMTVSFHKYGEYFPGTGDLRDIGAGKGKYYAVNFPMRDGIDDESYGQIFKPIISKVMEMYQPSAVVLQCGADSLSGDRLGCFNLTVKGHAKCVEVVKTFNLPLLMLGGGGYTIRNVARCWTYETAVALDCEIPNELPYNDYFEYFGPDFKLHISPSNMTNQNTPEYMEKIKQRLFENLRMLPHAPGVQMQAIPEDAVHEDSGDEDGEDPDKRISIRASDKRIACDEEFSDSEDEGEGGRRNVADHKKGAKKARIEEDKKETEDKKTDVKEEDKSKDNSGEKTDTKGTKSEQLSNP

Histone deacetylase 7 = target: T2, Histone deacetylase 7 (Homo sapiens, UniProt Q8WUI4); experiment: Inhibition of HDAC7 (unknown origin)
T2 sequence (Q8WUI4 whole entry): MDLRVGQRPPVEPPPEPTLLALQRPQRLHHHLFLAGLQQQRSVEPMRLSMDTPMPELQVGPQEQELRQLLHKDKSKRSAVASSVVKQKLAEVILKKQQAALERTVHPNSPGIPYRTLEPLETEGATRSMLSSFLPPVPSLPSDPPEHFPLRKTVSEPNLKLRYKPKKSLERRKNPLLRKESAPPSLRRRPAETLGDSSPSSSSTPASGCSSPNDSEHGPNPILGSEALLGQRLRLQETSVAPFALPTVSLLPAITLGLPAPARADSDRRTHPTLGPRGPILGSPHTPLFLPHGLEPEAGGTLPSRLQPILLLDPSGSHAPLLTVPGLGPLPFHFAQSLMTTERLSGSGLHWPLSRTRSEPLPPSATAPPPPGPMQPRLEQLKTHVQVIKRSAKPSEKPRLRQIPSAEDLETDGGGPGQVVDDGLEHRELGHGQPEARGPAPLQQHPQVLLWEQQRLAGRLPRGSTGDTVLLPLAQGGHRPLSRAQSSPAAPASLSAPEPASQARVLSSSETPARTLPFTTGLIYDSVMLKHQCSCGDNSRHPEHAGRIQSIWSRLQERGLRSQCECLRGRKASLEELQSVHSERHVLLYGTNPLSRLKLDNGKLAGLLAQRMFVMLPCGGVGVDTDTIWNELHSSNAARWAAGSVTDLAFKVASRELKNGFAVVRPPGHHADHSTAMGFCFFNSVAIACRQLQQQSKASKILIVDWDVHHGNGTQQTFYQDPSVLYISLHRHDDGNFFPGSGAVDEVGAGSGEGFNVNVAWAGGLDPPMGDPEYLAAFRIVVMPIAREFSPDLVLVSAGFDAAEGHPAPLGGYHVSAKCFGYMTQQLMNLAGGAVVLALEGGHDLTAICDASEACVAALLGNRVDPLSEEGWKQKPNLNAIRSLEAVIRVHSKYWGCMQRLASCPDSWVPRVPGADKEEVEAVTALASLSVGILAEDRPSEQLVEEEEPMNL

Histone deacetylase 5 = Histone deacetylase 5 (Homo sapiens, UniProt Q9UQL6); experiment: Inhibition of HDAC5 (unknown origin)
Sequence of Histone deacetylase 5 (Q9UQL6 whole entry): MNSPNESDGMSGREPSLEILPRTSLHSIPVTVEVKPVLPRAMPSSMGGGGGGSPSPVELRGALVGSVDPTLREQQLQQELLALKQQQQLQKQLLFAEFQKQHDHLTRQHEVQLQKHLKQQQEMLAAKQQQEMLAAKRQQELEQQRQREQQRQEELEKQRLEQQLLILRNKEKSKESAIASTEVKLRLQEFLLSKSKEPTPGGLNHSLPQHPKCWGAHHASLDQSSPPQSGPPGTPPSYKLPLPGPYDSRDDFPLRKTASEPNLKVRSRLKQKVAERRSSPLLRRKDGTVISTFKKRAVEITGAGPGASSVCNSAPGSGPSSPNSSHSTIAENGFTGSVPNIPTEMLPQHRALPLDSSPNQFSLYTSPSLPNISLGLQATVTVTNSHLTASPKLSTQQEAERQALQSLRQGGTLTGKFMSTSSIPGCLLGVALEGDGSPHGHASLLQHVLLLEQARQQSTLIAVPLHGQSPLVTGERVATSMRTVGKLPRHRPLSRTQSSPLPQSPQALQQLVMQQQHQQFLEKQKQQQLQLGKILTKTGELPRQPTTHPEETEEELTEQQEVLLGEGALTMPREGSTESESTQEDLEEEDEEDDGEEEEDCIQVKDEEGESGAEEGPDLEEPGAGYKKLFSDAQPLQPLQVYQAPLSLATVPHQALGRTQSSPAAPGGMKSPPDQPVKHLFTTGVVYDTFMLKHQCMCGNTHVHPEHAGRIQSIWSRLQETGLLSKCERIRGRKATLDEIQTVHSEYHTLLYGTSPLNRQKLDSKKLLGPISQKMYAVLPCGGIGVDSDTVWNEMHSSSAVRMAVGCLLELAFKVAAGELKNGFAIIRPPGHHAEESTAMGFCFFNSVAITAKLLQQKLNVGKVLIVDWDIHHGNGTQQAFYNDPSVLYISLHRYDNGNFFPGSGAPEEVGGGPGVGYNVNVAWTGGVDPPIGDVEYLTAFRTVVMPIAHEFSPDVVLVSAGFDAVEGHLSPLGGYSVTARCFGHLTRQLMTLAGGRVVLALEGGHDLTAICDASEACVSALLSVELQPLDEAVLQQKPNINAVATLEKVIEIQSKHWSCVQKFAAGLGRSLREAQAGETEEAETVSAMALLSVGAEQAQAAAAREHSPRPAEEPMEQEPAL

Histone deacetylase 9 = Histone deacetylase 9 (Homo sapiens, UniProt Q9UKV0); experiment: Inhibition of HDAC9 (unknown origin)
Sequence of Histone deacetylase 9 (Q9UKV0 whole entry): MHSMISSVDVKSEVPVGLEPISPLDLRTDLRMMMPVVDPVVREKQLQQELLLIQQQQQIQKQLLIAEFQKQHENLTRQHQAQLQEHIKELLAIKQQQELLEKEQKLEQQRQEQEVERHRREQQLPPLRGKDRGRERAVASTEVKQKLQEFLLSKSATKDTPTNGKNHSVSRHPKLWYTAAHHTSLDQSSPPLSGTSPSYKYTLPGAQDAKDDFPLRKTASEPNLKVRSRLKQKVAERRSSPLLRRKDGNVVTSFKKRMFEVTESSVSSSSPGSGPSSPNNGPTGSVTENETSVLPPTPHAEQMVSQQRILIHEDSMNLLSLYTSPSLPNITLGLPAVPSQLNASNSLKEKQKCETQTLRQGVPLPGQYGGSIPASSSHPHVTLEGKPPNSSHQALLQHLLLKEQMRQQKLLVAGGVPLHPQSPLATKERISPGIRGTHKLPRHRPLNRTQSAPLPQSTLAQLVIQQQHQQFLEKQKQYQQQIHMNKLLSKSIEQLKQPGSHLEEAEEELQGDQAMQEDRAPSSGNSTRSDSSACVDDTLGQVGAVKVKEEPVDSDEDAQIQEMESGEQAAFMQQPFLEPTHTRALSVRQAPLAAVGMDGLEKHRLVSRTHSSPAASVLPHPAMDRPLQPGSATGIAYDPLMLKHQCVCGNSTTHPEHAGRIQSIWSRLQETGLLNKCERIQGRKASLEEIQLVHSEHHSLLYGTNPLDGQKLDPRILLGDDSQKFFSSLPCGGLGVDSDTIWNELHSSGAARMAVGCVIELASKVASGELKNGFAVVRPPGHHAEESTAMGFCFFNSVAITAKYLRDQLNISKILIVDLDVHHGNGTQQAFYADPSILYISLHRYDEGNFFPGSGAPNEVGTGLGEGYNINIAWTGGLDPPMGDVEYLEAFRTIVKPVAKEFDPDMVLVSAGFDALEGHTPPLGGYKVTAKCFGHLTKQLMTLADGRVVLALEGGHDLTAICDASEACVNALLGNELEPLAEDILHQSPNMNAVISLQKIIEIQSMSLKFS

[1] = target: T3, Polyamine deacetylase HDAC10 (Homo sapiens, UniProt Q969S8); experiment: Inhibition of HDAC10 (unknown origin)
T3 sequence (Q969S8 whole entry): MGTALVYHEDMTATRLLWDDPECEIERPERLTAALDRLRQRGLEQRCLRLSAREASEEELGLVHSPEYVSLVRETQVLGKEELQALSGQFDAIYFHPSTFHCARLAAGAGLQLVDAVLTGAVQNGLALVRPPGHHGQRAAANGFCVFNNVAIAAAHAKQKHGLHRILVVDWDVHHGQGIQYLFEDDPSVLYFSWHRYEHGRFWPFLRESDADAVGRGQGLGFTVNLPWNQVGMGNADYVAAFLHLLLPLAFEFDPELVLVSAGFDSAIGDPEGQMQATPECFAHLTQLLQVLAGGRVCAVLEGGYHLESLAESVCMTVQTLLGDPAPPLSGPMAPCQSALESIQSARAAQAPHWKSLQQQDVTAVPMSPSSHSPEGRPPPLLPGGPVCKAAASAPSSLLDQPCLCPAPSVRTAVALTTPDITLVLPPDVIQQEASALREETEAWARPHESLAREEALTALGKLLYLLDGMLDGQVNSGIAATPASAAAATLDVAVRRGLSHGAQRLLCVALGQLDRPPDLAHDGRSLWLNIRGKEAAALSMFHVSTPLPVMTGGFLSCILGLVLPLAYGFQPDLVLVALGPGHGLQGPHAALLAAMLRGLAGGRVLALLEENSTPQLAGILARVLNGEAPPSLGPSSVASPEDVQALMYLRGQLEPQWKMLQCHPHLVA

Histone deacetylase 1 = Histone deacetylase 1 (Homo sapiens, UniProt Q13547); experiment: Inhibition of HDAC1 (unknown origin)
Sequence of Histone deacetylase 1 (Q13547 whole entry): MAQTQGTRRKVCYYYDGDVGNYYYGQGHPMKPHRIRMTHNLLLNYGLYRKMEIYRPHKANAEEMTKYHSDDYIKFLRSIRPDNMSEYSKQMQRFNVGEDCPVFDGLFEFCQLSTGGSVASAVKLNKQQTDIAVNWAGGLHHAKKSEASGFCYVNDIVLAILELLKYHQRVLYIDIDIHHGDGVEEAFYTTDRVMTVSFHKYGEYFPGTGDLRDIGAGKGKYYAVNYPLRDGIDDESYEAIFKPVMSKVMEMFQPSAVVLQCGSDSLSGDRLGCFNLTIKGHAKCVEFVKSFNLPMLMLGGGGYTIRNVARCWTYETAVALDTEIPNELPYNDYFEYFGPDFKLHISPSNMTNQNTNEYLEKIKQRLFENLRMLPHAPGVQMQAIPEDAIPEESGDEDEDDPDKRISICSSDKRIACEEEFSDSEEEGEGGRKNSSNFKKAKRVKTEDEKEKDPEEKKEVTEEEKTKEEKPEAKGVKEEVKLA

Histone deacetylase 8 = target: T4, Histone deacetylase 8 (Homo sapiens, UniProt Q9BY41); experiment: Inhibition of HDAC8 (unknown origin)
T4 sequence (Q9BY41 whole entry): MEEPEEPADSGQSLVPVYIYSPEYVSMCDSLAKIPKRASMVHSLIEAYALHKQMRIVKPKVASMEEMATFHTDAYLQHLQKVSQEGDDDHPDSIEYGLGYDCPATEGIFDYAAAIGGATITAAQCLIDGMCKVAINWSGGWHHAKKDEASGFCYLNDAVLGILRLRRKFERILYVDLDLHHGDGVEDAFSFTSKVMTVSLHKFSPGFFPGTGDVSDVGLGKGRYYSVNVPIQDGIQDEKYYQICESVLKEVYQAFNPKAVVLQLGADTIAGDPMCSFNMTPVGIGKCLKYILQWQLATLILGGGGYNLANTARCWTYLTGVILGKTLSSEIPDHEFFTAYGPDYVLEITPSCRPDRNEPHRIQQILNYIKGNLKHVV

pIC50 (Histone deacetylase 11): 6.27
pIC50 (Histone deacetylase 4): < 4.52
pIC50 (Histone deacetylase 2): 4.59
pIC50 (Histone deacetylase 7): < 4.52
pIC50 (Histone deacetylase 5): 4.92
pIC50 (Histone deacetylase 9): 5.05
pIC50 [1]: 4.85
pIC50 (Histone deacetylase 1): 5.31
pIC50 (Histone deacetylase 8): 5.54
Structure (SMILES): O=C(NO)c1ccc(CN2c3ccccc3[S+]([O-])C[C@H]3CCCC[C@H]32)cc1 (some centres undefined)
